pIC50: −log10 of the molar value. Structures can show the parent of a compound that is named as a salt.
Key:
A549 = assay: Cytotoxicity against human A549 cells assessed as cell growth inhibition by SRB assay; assay type: functional, cell-based
HL-60 = assay: Cytotoxicity against human HL-60 cells assessed as cell growth inhibition incubated for 72 hrs by CCK8 assay; assay type: functional, cell-based; conditions: HL-60, 72 h

Structure (SMILES): C=C[C@@](C)(O)[C@@H]1C[C@H]2C(=CC[C@H]3C(C)(C)CCC[C@]23C)C(=O)O1
- pIC50 (A549): < 5.00
- pIC50 (HL-60): 5.82

Structure (SMILES): COc1cccc2c1C(=O)c1c(O)c3c(c(O)c1C2=O)C[C@@](O)(C(=O)CO)C[C@@H]3O[C@H]1C[C@H](N)[C@H](O)[C@H](C)O1 [DOXORUBICIN HYDROCHLORIDE]
- pIC50 (A549): 6.07

Structure (SMILES): C=C[C@](C)(O)[C@@H]1C[C@H]2C(=CC[C@H]3C(C)(C)CCC[C@]23C)C(=O)O1
- pIC50 (A549): < 5.00
- pIC50 (HL-60): 5.62

Structure (SMILES): C=C[C@](C)(O)[C@H]1C[C@H]2C(=CC[C@H]3C(C)(C)CCC[C@]23C)C(=O)O1
- pIC50 (A549): < 5.00
- pIC50 (HL-60): 5.59

Structure (SMILES): C=C[C@@](C)(O)[C@H]1C[C@H]2C(=CC[C@H]3C(C)(C)CCC[C@]23C)C(=O)O1
- pIC50 (A549): < 5.00
- pIC50 (HL-60): 5.55

From ChEMBL document CHEMBL5055670, “Sublyratins A-O, Labdane-Type Diterpenoids from Croton sublyratus” (J Nat Prod, 2021)
